Test results published in US11083805B2, “Radiolabeled GRPR-antagonists for diagnostic imaging and treatment of GRPR-positive cancer” (Advanced Accelerator Applications International SA, priority 2012, dated 2021).

Columns and labels:
[1] = Metabolic study in mice (radiochromatogram of ex-vivo mouse blood); parameters: species or system Swiss albino mice; conditions: mouse blood 5 min after injection
Protocol: A bolus containing the radioligand in normal saline (100-150 μL, =3 nmol, 200-500 μCi) was injected in the tail vein of Swiss albino mice. Animals were kept for 5 min in a cage with access to water and were then euthanized promptly by cardiac puncture while under a mild ether anesthesia. Blood (500-900 μL) was collected from the heart with a syringe and transferred in a pre-chilled Eppendorf tube on ice.
Blood was centrifuged to remove blood cells (10 min, 2000 g/4° C.). The plasma was collected, mixed with acetonitrile (MeCN) in a 1/1 v/v ratio and centrifuged again (10 min, 15000 g/4° C.). Supernatants were concentrated to a small volume (gentle N2-flux at 40° C.), diluted with saline (z 400 μL) and filtered through a Millex GV filter (0.22 μm).
Aliquots of plasma samples (prepared as described above) were loaded on a Symmetry Shield RPM column which was eluted at a flow rate of 1.0 mL/min with the following gradient: 100% A to 90% A in 10 min and from 90% A to 60% for the next 60 min (A=0.1% aqueous TFA (v/v) and B=MeCN). Elution of radiocomponents was monitored by a gamma detector. For ^99mTc-radiopeptides, ITLC-SG analysis was performed in parallel using acetone as the eluent to detect traces of TcO4^− release (TcO4^− Rf=1.0).

PC-3 tumors (hGRPR+) = assay: Biodistribution in GRPR+ tumor bearing mice; format: in vivo, female SCID mice; conditions: for uptake in PC-3 tumor: iv, 10 pmol total peptide
Protocol: A 150 μL bolus containing a suspension of 1.5×10^7 freshly harvested human PC-3 cells in normal saline was subcutaneously injected in the flanks of female SCID mice. The animals were kept under aseptic conditions and 2-3 weeks later developed well-palpable tumors at the inoculation site (80-150 mg).
On the day of the experiment, the selected radiopeptide was injected in the tail vein of tumor-bearing mice as a 100 μL bolus (1-2 μCi, 10 pmol total peptide; in saline/EtOH 9/1 v/v). Animals were sacrificed in groups of four under a mild ether anesthesia by cardiac puncture at predetermined time points pi (postinjection). Additional sets of three to four animals were co-injected with excess [Tyr^4]BBN (≈40 nmol) along with test radiopeptide and were sacrificed at 4 h pi (blocked animals). Samples of blood and tissues of interest were immediately collected, weighed and measured for radioactivity in a γ-counter. Stomach and intestines were not emptied of their contents, but measured as collected. Biodistribution data were calculated as percent injected dose per gram tissue (% ID/g) using the Microsoft Excel program with the aid of suitable standards of the injected dose.

malignant lesions = conditions: cited from earlier work
[2] = tested on: human prostate cancer PC-3 xenografts; conditions: cited from earlier work

CC(C)CC(CC(C)C)NC(=O)[C@H](Cc1cnc[nH]1)NC(=O)CNC(=O)[C@@H](NC(=O)[C@H](C)NC(=O)[C@H](Cc1c[nH]c2ccccc12)NC(=O)[C@H](CCC(N)=O)NC(=O)[C@@H](Cc1ccccc1)NC(=O)COCC(=O)Nc1ccc(CNC(=O)CN2CCN(CC(=O)O)CCN(CC(=O)O)CCN(CC(=O)O)CC2)cc1)C(C)C [[67Ga]NeoBOMB-1] [^67Ga-DOTA-(p-aminobenzylamine-diglycolic acid)-[DPhe^6,His^12-CO—NH—CH[(CH2CH(CH3)2]2,des-Leu^3, des-Met^4]BBN(6-14), metal not drawn]
percentage of parent peptide remaining intact [1]: > 97%

CC(C)CC(CC(C)C)NC(=O)[C@H](Cc1cnc[nH]1)NC(=O)CNC(=O)[C@@H](NC(=O)[C@H](C)NC(=O)[C@H](Cc1c[nH]c2ccccc12)NC(=O)[C@H](CCC(N)=O)NC(=O)[C@@H](Cc1ccccc1)NC(=O)COCC(=O)Nc1ccc(CNC(=O)C2C[N]3CC[NH][Tc]34(=[O])(=[O])[NH]CC[N]4C2)cc1)C(C)C (some centres unmarked) [[99mTc]NeoBOMB-2]
uptake in PC-3 tumor (PC-3 tumors (hGRPR+); 1 h pi): ~30 % ID/g
uptake in PC-3 tumor (PC-3 tumors (hGRPR+); 4 h pi): ~30 % ID/g
uptake in PC-3 tumor (PC-3 tumors (hGRPR+); 24 h pi): > 25 % ID/g
percentage of parent peptide remaining intact [1]: > 88%

CC(C)CC(CC(C)C)NC(=O)[C@H](Cc1cnc[nH]1)NC(=O)CNC(=O)[C@@H](NC(=O)[C@H](C)NC(=O)[C@H](Cc1c[nH]c2ccccc12)NC(=O)[C@H](CCC(N)=O)NC(=O)[C@@H](Cc1ccccc1)NC(=O)COCC(=O)Nc1ccc(CNC(=O)CN2CCN(CC(=O)O)CCN(CC(=O)O)CCN(CC(=O)O)CC2)cc1)C(C)C [[111In]NeoBOMB-1] [^111In-DOTA-(p-aminobenzylamine-diglycolic acid)-[DPhe^6,His^12-CO—NH—CH[(CH2CH(CH3)2)2,des-Leu^13,des-Met^14]BBN(6-14), metal not drawn]
tumor uptake after co-injection of excess [Tyr4]BBN (in vivo receptor blockade) (PC-3 tumors (hGRPR+); 4 h pi, excess [Tyr4]BBN (100 μg)): significantly reduced
uptake in PC-3 tumor (PC-3 tumors (hGRPR+); 4 h pi): 28.6±6.0 % ID/g
uptake in PC-3 tumor (PC-3 tumors (hGRPR+); 24 h pi): 25.9±6.6 % ID/g
percentage of parent peptide remaining intact [1]: > 91%

CC(C)CC(CC(C)C)NC(=O)[C@H](Cc1cnc[nH]1)NC(=O)CNC(=O)[C@@H](NC(=O)[C@H](C)NC(=O)[C@H](Cc1c[nH]c2ccccc12)NC(=O)[C@H](CCC(N)=O)NC(=O)[C@@H](Cc1ccccc1)NC(=O)COCC(=O)Nc1ccc(CNC(=O)CN2CCN(CC(=O)O)CCN(CC(=O)O)CCN(CC(=O)O)CC2)cc1)C(C)C [[177Lu]NeoBOMB-1] [^177Lu-DOTA-(p-aminobenzylamine-diglycolic acid)-[DPhe^6,His^12-CO—NH—CH[(CH2CH(CH3)2]2,des-Leu^13,des-Met^14]BBN(6-14), metal not drawn]
tumor-to-pancreas ratios over time (PC-3 tumors (hGRPR+); 4, 24 and 72 h pi, especially at 72 h pi): increasingly higher tumor-to-pancreas ratios
percentage of parent peptide remaining intact [1]: > 92%

[^99mTc—N4′]DPhe-Gln-Trp-Ala-Val-Gly-His-Leu-NHEt [[99mTc]Demobesin 1]
body and pancreas clearance (malignant lesions; human, in vivo): rapid
in vivo stability (malignant lesions; human, in vivo): rather good
tolerability (malignant lesions; human, in vivo): excellent tolerability
retention in malignant lesions compared to radiolabeled BBN-like agonists (malignant lesions; humans): insufficient retention
tumor accumulation versus bombesin-based agonists ([99mTc]Demobesin 3-6) ([2]; mice bearing PC-3 xenografts): significantly higher tumor accumulation
clearance from the body of mice and the pancreas ([2]; mouse, in vivo): cleared very rapidly
